Measured values: patent US7015244B1 (priority 1998, dated 2006)

Experiments:
tumor = conditions: Phase II, cytotoxic doses; cited from earlier work
[1] = system: human epidermoid cells, virally infected with HSV-2
[2] = human, inhaled or intranasal
[3] = system: human epidermoid cells, virally infected with HSV-2; conditions: cited from earlier work
[4] = system: human epidermoid cells, virally infected with HSV-2; conditions: cited from earlier work; remark: listed apart in the source

For CC(=O)OC[C@]12CCC(C)=C[C@H]1O[C@@H]1[C@H](O)[C@@H](OC(C)=O)[C@@]2(C)[C@]12CO2 [Anguidine], the hematologic toxicity (tumor) is given as “considerable hematologic toxicity” and the “overall tumor response rate” value (tumor) is given as “low”.

For CC(=O)OC[C@]12CCC(C)=C[C@H]1O[C@@H]1[C@H](O)[C@@H](OC(C)=O)[C@@]2(C)[C@]12CO2 [DAS], the “Trichothecene in Vitro Concentration, Cytotoxic Min” value [1] was 6 ng/mL, the “Trichothecene in Vitro Concentration, Toxic Lo” value [1] was 201 ng/mL and the “Trichothecene in Vitro Concentration, Cytotoxic Max” value ([1]; human) was 200 ng/mL. For the same compound, the “In Vivo Dose for Average 1200 Gram Lungs, Cytotoxic Max” value [2] was 240000 ng, the “Trichothecene in Vitro Concentration, Inhibitory 50%” value [3] was 2.3 ng/mL and the “Trichothecene in Vitro Concentration, Inhibitory 80%” value [3] was 4.0 ng/mL. For the same compound, the “Trichothecene in Vitro Concentration, Inhibitory 90%” value [3] was 4.5 ng/mL, the “Trichothecene in Vitro Concentration, Inhibitory 99%” value [3] was 5.0 ng/mL and the “inhibition of hyperactive protein synthesis” value [3] was ~99%. For the same compound, the “concentrations that did not reduce cell viability” value [4] was “up to 200 ng/ml”.
